In patent publication US20170007562A1, “Use of Guanidinoacetic Acid and/or Creatine for Increasing the Hatch Rate” (EVONIK DEGUSSA GMBH, priority 2014, published 2017):

Assays:
[1] = test system: eggs; conditions: prior art, Halle et al, Landbauforschung Völkenrode (2006); cited from earlier work
[2] = test system: parent quails / quail eggs; experiment: Effect of guanidinoacetic acid in parent feed on total fertility, hatching rate and embryo mortality of quail eggs; format: in vivo; conditions: for Total fertility: eggs of quails aged 29 weeks; for Hatching rate: hatched quails to incubated eggs
Method: 240 parent quails aged 25 weeks were randomly assigned to 5 different rations. Each ration had in each case 8 cages assigned to it, each of which contained a total of 6 birds (4 females, 2 males). Each of the cages was exposed to 17 hours light (natural and artificial), followed by 7 hours dark.
The basic feed employed was a mixture which consisted essentially of maize meal and extracted soybean meal (see table 1). Guanidinoacetic acid (GAA) was added to the basic feed in 4 different amounts (0.06; 0.12; 0.18; 0.24% by weight) giving in total 5 different feed mixtures—with the basic feed without guanidinoacetic acid as reference. The inert constituents of the basic feed were in each case partially substituted by the added guanidinoacetic acid. Guanidinoacetic acid was employed in the form of the commercial product CreAMINO® (96% GAA, Evonik Industries, Germany). During the experiment, the feed was administered ad lib in the form of a meal. Furthermore, the birds were also supplied with sufficient water.
When the quails had reached an age of 29 weeks, the eggs laid were collected on seven successive days and stored for six days in a room at a temperature of 20° C. Thereafter, in each case 196 eggs per ration were incubated in an automatic hatcher. After incubation for 15 days in the hatcher, the eggs were transferred into a hatching room with a temperature of 37° C. and relative atmospheric humidity of 65%. After two days in the hatching room, the hatching rate was determined as the ratio of hatched quails to the number of incubated eggs. Equally, the total fertility was determined as the ratio of fertilized eggs to the total number of incubated eggs. Furthermore, the hatching rate of fertilized eggs was determined as the ratio of hatched quails to the number of fertilized eggs. Furthermore, the embryo mortality, too, was determined. Finally, the guanidinoacetic acid, creatine and creatinine contents in the obtained eggs were determined.

[3] = test system: hatched quail chicks; experiment: Effect of GAA feeding of the parent animals on the properties of the hatched chicks; format: in vivo, quails; conditions: for Feed conversion / Weight gain / total feed intake, days 1–35: GAA-free ration, days 1 to 35; for Weight on day 1: chicks on GAA-free ration
Source text: Finally, the effect of GAA feeding of the parent animals on the properties of the hatched chicks was also studied. To this end, in each case 80 chicks which had been obtained subsequently to feeding the parent animals with the respective ratios were subjected to a two-step feeding programme. Here, the chicks were subjected to a GAA-free ration. Here, all chicks were given the same feed. The feeding stuff of the chicks for the first three weeks and for weeks four to five can be seen from Table 1. The data determined were chick weight on the day of hatching, chick performance (feed intake, weight increase and feed conversion) and creatine content in the muscle tissue of the freshly hatched chicks.

[4] = test system: parent broilers (Cobb 500); experiment: Effect of guanidinoacetic acid on egg production, fertility and hatching rate of hatchery eggs of parent broilers; format: in vivo; conditions: week 50 to 60
Source text: 120 parent broilers (Cobb 500) were randomly assigned to 5 different 10-week feeding measures from week 50 to week 60 of their lives. In each case 6 cages, each of which contained a total of 4 parent hens were subjected to each feeding measure. The basic feed employed was a mixture consisting essentially of maize meal and soybean meal (Table 5). […] In this context, in each case the inert constituents of the basic feed were substituted to some extent by the added guanidinoacetic acid. Guanidinoacetic acid was employed in the form of the commercial product CreAMINO® (96% GAA, Evonik Industries, Germany). The parent animals were given the feed meal as per instructions of the Cobb Breeder Management Guide. In week 60 of their lives, the hens were twice artificially inseminated, the second insemination taking place 4 days after the first one. The semen used for the insemination was obtained from cockerels which had not been fed GAA. The semen was obtained by using abdominal massage. The semen obtained was collected and the sperm cell concentration was determined in order to ensure that all hens were inseminated with the same number and the same volume of sperm cells. After carrying out the insemination, the laid eggs were collected on 10 successive days. The eggs obtained were finally incubated under identical conditions, and the egg production rate, fertility and hatching rate of the fertilized eggs were subsequently determined.

[5] = 0.06% by weight GAA in parent feed
[6] = 0.06% by weight GAA in parent feed, quails
[7] = 0.12% by weight GAA in parent feed
[8] = 0.12% by weight GAA in parent feed, quails
[9] = 0.18% by weight GAA in parent feed
[10] = 0.18% by weight GAA in parent feed, quails
[11] = 0.24% by weight GAA in parent feed
[12] = 0.24% by weight GAA in parent feed, quails
[13] = square regression analysis, quails
[14] = chicks of parents fed 0.06% by weight GAA
[15] = chicks of parents fed 0.12% by weight GAA
[16] = chicks of parents fed 0.18% by weight GAA
[17] = chicks of parents fed 0.24% by weight GAA
[18] = 0.04% by weight guanidinoacetic acid in feed
[19] = 0.08% by weight guanidinoacetic acid in feed
[20] = 0.12% by weight guanidinoacetic acid in feed
[21] = 0.16% by weight guanidinoacetic acid in feed

For CN(CC(=O)O)C(=N)N [creatine], the “effect on the hatching rate” value [1] is listed as “no effect”.

For N=C(N)NCC(=O)O [GAA, Guanidinoacetic acid], the Total fertility [2, 5] was 95.27 ± 1.81%, the Hatching rate [2, 5] was 76.52 ± 3.78% and the “Hatching rate of the fertilized eggs” value [2, 6] was 80.19 ± 3.07%. The “Mortality (embryo mortality)” value [2, 6] was 18.75 ± 2.76%, the Total fertility [2, 7] was 97.05 ± 1.51% and the Hatching rate [2, 7] was 90.69 ± 2.10%. The “Hatching rate of the fertilized eggs” value [2, 8] was 93.49 ± 2.04%, the “Mortality (embryo mortality)” value [2, 8] was 6.40 ± 1.96% and the Total fertility [2, 9] was 98.32 ± 0.82%. For the same compound, the Hatching rate [2, 9] was 87.39 ± 3.20%, the “Hatching rate of the fertilized eggs” value [2, 10] was 88.94 ± 3.33% and the “Mortality (embryo mortality)” value [2, 10] was 10.92 ± 3.32%. For the same compound, the Total fertility [2, 11] was 94.02 ± 1.29%, the Hatching rate [2, 11] was 81.38 ± 2.50% and the “Hatching rate of the fertilized eggs” value [2, 12] was 86.51 ± 2.03%. The “Mortality (embryo mortality)” value [2, 12] was 12.64 ± 1.89%, the “dosage from which the observed effects were significantly increased” value ([2]; quails) was “above 0.1 % by weight” and the “optimum range of feeding the parent animals” value ([2]; quails) was 0.12-0.18 % by weight. For the same compound, the “optimum value for GAA supplementation in terms of the hatching rate” value [2, 13] was 0.15 % by weight, the “optimum value for GAA supplementation in terms of the hatching rate of fertilized eggs” value [2, 13] was 0.16 % by weight and the “optimum value for GAA supplementation in terms of the mortality rate” value [2, 13] was 0.16 % by weight. For the same compound, the “optimum value for GAA supplementation in terms of the total reproduction” value [2, 13] was 0.14 % by weight, the Feed conversion [3, 14] was 3.248 ± 0.063 g/g and the Weight gain [3, 14] was 230.74 ± 7.6 g. For the same compound, the total feed intake, days 1–35 [3, 14] was 748 ± 11.1 g, the “Weight on day 1” value [3, 14] was 9.60 ± 0.16 g and the Feed conversion [3, 15] was 3.414 ± 0.048 g/g. For the same compound, the Weight gain [3, 15] was 224.98 ± 2.9 g, the total feed intake, days 1–35 [3, 15] was 768 ± 11.1 g and the “Weight on day 1” value [3, 15] was 9.74 ± 0.31 g. For the same compound, the Feed conversion [3, 16] was 3.305 ± 0.033 g/g, the Weight gain [3, 16] was 217.22 ± 0.6 g and the total feed intake, days 1–35 [3, 16] was 718 ± 8.95 g. The “Weight on day 1” value [3, 16] was 9.65 ± 0.16 g, the Feed conversion [3, 17] was 3.455 ± 0.090 g/g and the Weight gain [3, 17] was 222.86 ± 1.9 g. The total feed intake, days 1–35 [3, 17] was 770 ± 26.1 g, the “Weight on day 1” value [3, 17] was 9.41 ± 0.17 g and the “Creatine in the muscle” value ([3]; freshly hatched chicks of parents fed 0.06% by weight GAA) was 0.541 ± 0.026 mg/g. The “Creatine in the muscle” value ([3]; freshly hatched chicks of parents fed 0.12% by weight GAA) was 0.489 ± 0.058 mg/g, the “Creatine in the muscle” value ([3]; freshly hatched chicks of parents fed 0.18% by weight GAA) was 0.481 ± 0.040 mg/g and the “Creatine in the muscle” value ([3]; freshly hatched chicks of parents fed 0.24% by weight GAA) was 0.433 ± 0.033 mg/g. The Egg production [4, 18] was 50.42%, the Fertility [4, 18] was 85.15% and the “Hatching rate (of fertilized eggs)” value [4, 18] was 65.59%. The Egg production [4, 19] was 53.18%, the Fertility [4, 19] was 96.51% and the “Hatching rate (of fertilized eggs)” value [4, 19] was 83.76%. The Egg production [4, 20] was 53.44%, the Fertility [4, 20] was 96.43% and the “Hatching rate (of fertilized eggs)” value [4, 20] was 83.95%. The Egg production [4, 21] was 50.50%, the Fertility [4, 21] was 81.76% and the “Hatching rate (of fertilized eggs)” value [4, 21] was 65.04%.
